From patent US20260284095A1 (Mayo Foundation for Medical Education and Research, priority 2023, published 2026) come the findings set out here.

Data set [1] relates to GMR>Tau Drosophila (tau-mediated eye degeneration). Briefly: Dasatinib in Drosophila tau eye degeneration model. Format: in vivo, Drosophila melanogaster. Particulars: fly food with dasatinib 1 μM or 10 μM vs DMSO 0.5%; flies aged 5 days; blinded eye score.
A further data set concerns STOM. Briefly: ASO screen in H4 neuroglioma cells, STOM knock-down. The format is cell-based. As to conditions: ASO 10 nM and 100 nM in the screen. The procedure:
(§1) Expression levels of DDR2, KANK2, and STOM were confirmed to have similar expression levels in the H4 neuroglioma cells (ATCC cat #HTB-148) and PSP brain homogenate (FIG. 27), and then ASOs described in Example 3 were screened for various characteristics in H4 cells. cDNA reverse transcription kits High-Capacity cDNA Reverse Transcription Kit (High-cap, Thermo Fisher Scientific, cat #4368814) and SuperScript™ IV VILO™ (VILO, Thermo Fisher Scientific, cat #11756050) were assessed. Both cDNA synthesis kits tested quantitatively reverse transcribed RNA into cDNA (FIG. 28). qPCR master mixes TaqMan™ Fast Advanced (Fast Advance, Thermo Fisher Scientific, cat #4444556) and TaqMan™ Universal PCR Master Mix (Universal, Thermo Fisher Scientific, cat #4364340) were assessed. Both qPCR master mixes quantitatively amplified cDNA and generated detectable signals (FIG. 29). Multiplexed qPCR assays were also performed. Duplexed gene quantification yielded similar results as singleton qPCR setups (FIG. 30). ASOs targeting PPIB were used as a positive control to confirm delivery of the ASOs to H4 cells and establish ASO screening parameters (FIG. 31).
(§2) ASOs described in Example 3 were screened in the H4 neuroglioma cells. Different concentrations of ASOs (10 nM and 100 nM) were administered and knock-down efficiency (measured by fold change of mRNA compared to non-targeting ASO treated controls) and ASO toxicity (measured by LDH assay) were determined (FIGS. 32A-32F).
(§3) Three ASO hits were selected for each target (DDR2: D4, D5, D9; KANK2: K4, K5, K10; STOM: S1, S4, S10). The knock-down efficiency (mRNA change) and ASO safety (cell toxicity as measured by LDH assay and viability as measured by XTT assay) were repeated/performed to validate the hits, as shown in FIG. 33A-33C.
(§4) Knock-down was assessed by measuring polypeptide levels (FIGS. 35, 40, 41) using western Blot.

For the next data set, the system named is KANK2. Briefly: ASO screen in H4 neuroglioma cells, KANK2 knock-down. Particulars: ASO 10 nM and 100 nM in the screen. The format is cell-based. The procedure:
as §1, §2, §3, §4

A further data set deals with DDR2. The experiment in a line: ASO screen in H4 neuroglioma cells, DDR2 knock-down. Format: cell-based. Particulars: ASO 10 nM and 100 nM in the screen. How it is done: as §1, §2, §3, §4
The subject of data set [2] is DDR2 mRNA. Briefly: ASO D5 target engagement in iPSC-derived neurons. Format: cell-based. The procedure:
(§5) Induced pluripotent stem cells (iPSCs) were examined as a model to assess target engagement of the ASO D5 (targeting DDR2). […] ASO D5 was administered to iPSCs-derived astrocytes and neurons separately following the schematic depicted in FIGS. 38-39.

In data set [3] the test system is DDR2 mRNA. Briefly: ASO D5 target engagement in iPSC-derived astrocytes. Format: cell-based. How it is done: as §5

With `Cc1nc(Nc2ncc(C(=O)Nc3c(C)cccc3Cl)s2)cc(N2CCN(CCO)CC2)n1` [dasatinib], the tau-mediated eye degeneration result in data set [1] is reported as “dosage-dependent reduction”.
“S10: ASO targeting STOM, ACACGCTCCACCTTTATTCC, 2'-MOE wings, phosphorothioate bonds (all phosphorothioate, sugars by position and methylation of C not given here; 2'-MOE wings)”: the “knock-down efficiency of STOM (fold change of mRNA compared to non-targeting ASO; polypeptide by western blot)” value with STOM is reported as “hits”.
The same measure, in the same setting: the same measure for “S1: ASO targeting STOM, GGACTACGAATTCACAAGGC, 2'-MOE wings, phosphorothioate bonds (all phosphorothioate, sugars by position and methylation of C not given here; 2'-MOE wings)”: “hits”.
As for “K10: ASO targeting KANK2, CGTCCTGTCTTGCTTTGTCT, 2'-MOE wings, phosphorothioate bonds (all phosphorothioate, sugars by position and methylation of C not given here; 2'-MOE wings)”, the “knock-down efficiency of KANK2 (fold change of mRNA compared to non-targeting ASO; polypeptide by western blot)” value with KANK2 is on record as “hits”.
As to “D4: ASO targeting DDR2, ACAGAGTCAGGACAAATGGC, 2'-MOE wings, phosphorothioate bonds (all phosphorothioate, sugars by position and methylation of C not given here; 2'-MOE wings)”, the “knock-down efficiency of DDR2 (fold change of mRNA compared to non-targeting ASO; polypeptide by western blot)” value with DDR2 is “hits”.
Consider “D9: ASO targeting DDR2, CTGCTCATTCCAAAGTCAGC, 2'-MOE wings, phosphorothioate bonds (all phosphorothioate, sugars by position and methylation of C not given here; 2'-MOE wings)”, for which the “knock-down efficiency of DDR2 (fold change of mRNA compared to non-targeting ASO; polypeptide by western blot)” value in the data set with DDR2 is “hits”.
On to “K4: ASO targeting KANK2, GCAAGCCAGTCTACATCAAG, 2'-MOE wings, phosphorothioate bonds (all phosphorothioate, sugars by position and methylation of C not given here; 2'-MOE wings)”, for which, in the data set with KANK2, the “knock-down efficiency of KANK2 (fold change of mRNA compared to non-targeting ASO; polypeptide by western blot)” value was “hits”.
Consider “S4: ASO targeting STOM, GCAATGGTGGTCAGTGTCTG, 2'-MOE wings, phosphorothioate bonds (all phosphorothioate, sugars by position and methylation of C not given here; 2'-MOE wings)”, for which the “knock-down efficiency of STOM (fold change of mRNA compared to non-targeting ASO; polypeptide by western blot)” value in the data set with STOM is on record as “hits”.
As for “D5: ASO targeting DDR2, CACTCTTGCAGCAGACATTC, 2'-MOE wings, phosphorothioate bonds (all phosphorothioate, sugars by position and methylation of C not given here; 2'-MOE wings)”, the “knock-down efficiency of DDR2 (fold change of mRNA compared to non-targeting ASO; polypeptide by western blot)” value with DDR2 was “hits”. Also, the “DDR2 mRNA” value in the data set with DDR2 mRNA [2] and in the data set on DDR2 mRNA [3] was “reduced DDR2 mRNA” in each case.
As to “K5: ASO targeting KANK2, CCCTCAGACACCCACAATTA, 2'-MOE wings, phosphorothioate bonds (all phosphorothioate, sugars by position and methylation of C not given here; 2'-MOE wings)”, in the data set on KANK2, the “knock-down efficiency of KANK2 (fold change of mRNA compared to non-targeting ASO; polypeptide by western blot)” value is on record as “hits”.
